# In patent publication US20020115642A1, “Beta-lactam antibiotics” (priority 2000, published 2002):
# Read-outs that look alike come from different tables or passages of the source.
# Key:
# E. faecium = test: Susceptibility testing (MIC, modified NCCLS method); format: cell-based, Enterococcus faecium; conditions: Enterococcus faecium; E. faecium (6); read-out: GM* MIC (geometric mean)
# Protocol: (§1) The NCCLS (National Committee for Clinical Laboratory Standards) method to determine MIC's of antimicrobial compounds was modified for high-throughput screening. All stocks of tested compounds were prepared in either water or in dimethylsulfoxide (DMSO), depending on the solubility. […] Briefly 20 2-fold serial dilutions of testing compounds from the highest concentration were made in a 384-well microtiter plate. Each well was inoculated with testing bacteria in broth to a final concentration of approximately 1-1.5×10^6 cells/ml. Bacterial growth was determined by the increase of optical density at 600 nm using a microplate reader (Tecan SpectraFluor Plus).
# E. cloacae = test: as above; format: cell-based, Enterobacter cloacae; conditions: E. cloacae (1)
# Summary of the method: (§2)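 Readout OD600 increase. Compounds (aqueous or DMSO stocks) serially diluted 2-fold across 20 concentrations, then inoculated with bacterial broth culture to final ~1-1.5×10^6 cells/ml; screening-adapted NCCLS microdilution.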
# E. coli/TEM-1 [1] = test: as above; format: cell-based, Escherichia coli; conditions: for MIC: Escherichia coli
# Summary of the method: as §2
# E. coli N = test: as above; format: cell-based, Escherichia coli; conditions: Escherichia coli, E. coli, BLA neg.
# Summary of the method: as §2
# E. aerogenes = test: as above; format: cell-based, Enterobacter aerogenes; conditions: E. aerogenes (5)
# Summary of the method: as §2
# Staphylococcus aureus = test: as above; format: cell-based; conditions: for MIC: Staphylococcus aureus
# Summary of the method: as §2
# E. faecalis = test: as above; format: cell-based, Enterococcus faecalis; conditions: E. faecalis (7)
# Summary of the method: as §2
# TEM-1 β-lactamase = molecular target: T1, TEM-1 β-lactamase (Escherichia coli, UniProt P62593); format: biochemical; conditions: 20 minutes, […] TEM-1, 4 μM solution of Compound (9)
# T1 construct: His tag (N); made in house; host or cells: Escherichia coli BL21(DE3)
# T1 sequence (P62593 24-286 limits assumed): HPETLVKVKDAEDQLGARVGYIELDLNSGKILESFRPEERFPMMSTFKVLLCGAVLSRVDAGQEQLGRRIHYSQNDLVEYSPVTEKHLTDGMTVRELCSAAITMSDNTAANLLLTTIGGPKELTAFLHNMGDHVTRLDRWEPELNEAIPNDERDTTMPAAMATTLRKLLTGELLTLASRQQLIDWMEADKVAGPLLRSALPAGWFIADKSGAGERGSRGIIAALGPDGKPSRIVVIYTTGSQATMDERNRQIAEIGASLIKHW
# Protocol: Assays were conducted at 37° C. in 100 mM potassium phosphate buffer pH 7.2 with 1 mM EDTA and 0.5 μg/ml TEM-1 β-lactamase. […] Hydrolysis product (triclosan) was separated from Compound (9) by use of an HP1100 series HPLC equipped with an Alltech Adsorbosphere HS(C18)5u 150 mm×4.6 mm column. The mobile phase was isocratic containing 55% acetonitrile and 0.1% TFA producing retention times of 20.4 minutes and 24.1 minutes for triclosan and Compound (9), respectively. Quantitation of triclosan was based on the A260 integrated peak area as compared to triclosan standards.
# A typical TEM-1 β-lactamase assay is conducted at 37° C. in 1.4 ml of 100 mM potassium phosphate pH 7.2, 1 mM; ethylenediamine tetraacetic acid (EDTA) and 25 nM TEM-1 β-lactamase. A test compound is assayed at several concentrations, for example at 5 and 20 μM. […] Substrates and products are separated and quantitated via HPLC (described below). […]
# Kinetic parameters of test compounds (kcat and Km) are determined from a simultaneous progress curve analysis of substrate consumption and product formation (when both are observable) as fit to the equations: […]
# Hydrolysis product (triclosan) was separated from Compound (9) by use of an HP1100 series HPLC equipped with an Alltech Adsorbosphere HS(C18)5μ150 mm×4.6 mm column. […] Quantitation of triclosan was based on the A260 integrated peak area as compared to triclosan standards.
# S. aureus (ATCC#700260) = test: Bactericidal assay; format: cell-based; conditions: 0.6 μg/ml
# Protocol: Compound (9) was added in log-phase S. aureus (ATCC#700260) and incubated at 37° C. The final concentration of cells at hour 0 was 1.3×10^6 cells/ml, and Compound (9) was 0.6 μg/mL. […]
# Overnight broth cultures of S. aureus (ATCC#700260) were diluted 100 times into liquid medium and allowed to grow to exponential phase (OD600=0.6). Next the bacteria were diluted into fresh medium to give a working concentration of 10^6 cells/ml. Compound (9) was added to a final concentration of 0.6 μg/ml, and the suspension was incubated at 37° C. […] The samples were diluted at 10^−3×, 10^−4× or 10^−5× fold, and plated onto agar plates. The plates were incubated for 24 hours at 37° C. to obtain a viable cell count.
# E. coli/TEM-1 [2] = test: Detection of triclosan released from Compound (9) in bacteria; format: cell-based, Escherichia coli; conditions: E. coli/TEM-1, after five minutes, 100 μM Compound (9)
# Protocol: E coli N and β-lactamase expressing E. coli/TEM-1 were treated with Compound (9) under the condition described in Example 15. Aliquots of culture were sampled at 0, 5 and 15 minutes. The amount of Compound (9) and triclosan were analyzed by HPLC.
# Overnight cultures of both wild-type Escherichia coli N and β-lactamase producing strain Escherichia coli/TEM-1 were diluted 100 times with fresh LB medium and cells were grown for 4 hours at 37° C. (shaking at 230 rpm). Cells were then diluted with fresh LB medium containing 100 μM Compound (9) until the OD600 reached 0.2. Aliquots of the culture were sampled at different timed intervals and the cells were pelleted by centrifugation at 10,000×g for 2 minutes at 4° C. The supernatant was removed and combined with 500 μl acetonitrile. The pelleted bacterial cells were resuspended in 100 μl 133 Phosphate Buffer (GIBCO-BRL, pH8.0) and subjected to 3 cycles of freeze-thawing, followed by addition of 500 μl acetonitrile. Both pellet extracts and supernatant were centrifuged at 10,000×g for 2 minutes at 4° C. 550 μl of the resultant supernatant was transferred into a new Eppendorf tube and vacuum-dried. Dried pellets were resuspended in 50 μl H2O and 100 μl acetonitrile, 75 μl of which was analyzed by HPLC.
# H. influenzae = test: Susceptibility testing (MIC, modified NCCLS method); format: cell-based, Haemophilus influenzae; conditions: H. influenzae (4)
# Protocol: as §1
# S. pneumoniae = test: as above; format: cell-based, Streptococcus pneumoniae; conditions: S. pneumoniae (3)
# Protocol: as §1
smiles,measurement,setting,value
"O=C(Cc1cccs1)N[C@@H]1C(=O)N2C(C(=O)O)=C(COc3cc(Cl)ccc3Oc3ccc(Cl)cc3Cl)CS[C@H]12 [Compound 9, 3-(2-(2,4-Dichlorophenoxy)-5-chlorophenoxy)methyl-7-(2-thienylacetamido)-3-cephem-4-carboxylic acid]",MIC,E. faecium,> 7000 ng/mL
same,MIC range,E. cloacae,1000 ng/mL
same,MIC,"E. cloacae; Enterobacter cloacae, read-out: GM* MIC (geometric mean)",1000 ng/mL
same,MIC,E. coli/TEM-1 [1],2 ng/mL
same,MIC,"E. coli/TEM-1 [1]; read-out: MIC, Comp. (9) plus 8 μg/mL SBT",16 ng/mL
same,fold more potent against E. coli/TEM-1 compared with E. coli N,"E. coli/TEM-1 [1]; MIC ratio, Table 4",128 fold
same,MIC,"E. coli N; read-out: MIC, Comp. (9) plus 4 μg/mL CLA, plus 4 μg/mL lithium clavulanate",250 ng/mL
same,MIC,"E. coli N; drug alone, read-out: MIC",250 ng/mL
same,MIC,"E. coli N; plus 8 μg/mL sulbactam, read-out: MIC, Comp. (9) plus 8 μg/mL SBT",130 ng/mL
same,MIC range,E. aerogenes,500 to 8000 ng/mL
same,MIC,"E. aerogenes; Klebsiella aerogenes, read-out: GM* MIC (geometric mean)",3360 ng/mL
same,fold greater potency than vancomycin,Staphylococcus aureus; MRSA and vancomycin-resistant S. aureus,at least 85 fold
same,Geometric mean of MIC,"Staphylococcus aureus; S. aureus β-lactamase negative (2), listed as Comp. 9",1410 ng/mL
same,MIC,"Staphylococcus aureus; ATCC11632, ATCC 11632, methicillin-sensitive, β-lactamase Neg./Pos., read-out: MIC",0.015 ng/mL
same,MIC,"Staphylococcus aureus; ATCC13301, ATCC 13301, methicillin-sensitive, β-lactamase Positive, read-out: MIC",0.015 ng/mL
same,MIC,"Staphylococcus aureus; ATCC14154, ATCC 14154, methicillin-sensitive, β-lactamase Positive, read-out: MIC",0.015 ng/mL
same,MIC,"Staphylococcus aureus; ATCC33591, ATCC 33591, methicillin-resistant, β-lactamase Positive, read-out: MIC",0.03 ng/mL
same,MIC,"Staphylococcus aureus; ATCC33592, ATCC 33592, methicillin-sensitive, β-lactamase Positive, read-out: MIC",0.015 ng/mL
same,MIC,"Staphylococcus aureus; ATCC33593, ATCC 33593, methicillin-resistant, β-lactamase Positive, read-out: MIC",0.015 ng/mL
same,MIC,"Staphylococcus aureus; ATCC33594, ATCC 33594, methicillin-sensitive, β-lactamase Positive, read-out: MIC",0.015 ng/mL
same,MIC,"Staphylococcus aureus; ATCC43300, ATCC 43300, methicillin-sensitive, β-lactamase Neg./Pos., read-out: MIC",0.06 ng/mL
same,MIC,"Staphylococcus aureus; ATCC700260, ATCC 700260, methicillin-sensitive, β-lactamase Positive, read-out: MIC",0.015 ng/mL
same,MIC,"Staphylococcus aureus; ATCC700698, ATCC 700698, methicillin-resistant, β-lactamase Negative, read-out: MIC",1000 ng/mL
same,MIC,"Staphylococcus aureus; ATCC700699, ATCC 700699, methicillin-resistant, β-lactamase Negative, read-out: MIC",2000 ng/mL
same,MIC,"Staphylococcus aureus; ATCC700787, ATCC 700787, methicillin-resistant, β-lactamase Positive, read-out: MIC",1000 ng/mL
same,MIC,"Staphylococcus aureus; ATCC700788, ATCC 700788, methicillin-resistant, β-lactamase Positive, read-out: MIC",250 ng/mL
same,MIC,"Staphylococcus aureus; ATCC700789, ATCC 700789, methicillin-resistant, β-lactamase Positive, read-out: MIC",31 ng/mL
same,MIC,"Staphylococcus aureus; MRSA, MRSA tested (7), read-out: Geometric mean of MIC",25 ng/mL
same,MIC,"Staphylococcus aureus; MSSA, MSSA tested (7), read-out: Geometric mean of MIC",0.018 ng/mL
same,MIC,"Staphylococcus aureus; S. aureus (14), read-out: Geometric mean of MIC",1 ng/mL
same,MIC,"Staphylococcus aureus; S. aureus β-lactamase negative (2), read-out: Geometric mean of MIC",1570 ng/mL
same,MIC,"Staphylococcus aureus; S. aureus β-lactamase positive (12), read-out: Geometric mean of MIC",0.19 ng/mL
same,MIC range,E. faecalis,8000 to 16000 ng/mL
same,MIC,"E. faecalis; Enterococcus faecalis, read-out: GM* MIC (geometric mean)",8000 ng/mL
same,converted to triclosan,TEM-1 β-lactamase,~90%
same,decrease of the number of viable cells,S. aureus (ATCC#700260); 6 hours incubation,100 fold
same,decrease of the number of viable cells compared with time 0,S. aureus (ATCC#700260); 24 hour incubation,"10,000 fold"
same,Compound (9) hydrolyzed producing an equimolar amount of triclosan,E. coli/TEM-1 [2],approximately 80%
same,MIC range,H. influenzae,7.5 to 61 ng/mL
same,MIC,"H. influenzae; Haemophilus influenzae, read-out: GM* MIC (geometric mean)",15 ng/mL
same,MIC range,S. pneumoniae,60 to 500 ng/mL
same,MIC,"S. pneumoniae; Streptococcus pneumoniae, read-out: GM* MIC (geometric mean)",122 ng/mL
